Data published in patent publication US8124610B2, “Sodium channel inhibitors” (Icagen Inc., priority 2007, dated 2012).

Assays:
hSCN3A = target: T1, hSCN3A (Homo sapiens, UniProt Q9NY46); assay: Whole-cell patch-clamp electrophysiology (conventional or PatchXpress), HEK cells expressing hSCN3A, estimated IC-50; assay type: cell-based; conditions: estimated IC-50, HEK cells expressing hSCN3A; class symbols or bounds; read-out: SCN3A EIC-50
T1 construct: expressed in transfected cells
Method: Human Embryonic Kidney (HEK) cells were transfected with hSCN3A or hSCN9A constructs using lipofectamine reagent (Invitrogen), using standard techniques. Cells stably expressing the hSCN3A or hSCN9A constructs were identified by their resistance to G-418 (400 μg/ml). Clones were screened for expression using the whole-cell voltage-clamp technique. HEK cells stably transfected with hSCN3A or hSCN9A were maintained in DMEM medium supplemented with 10% heat-inactivated fetal bovine serum and 400 μg/ml G418 sulfate in an incubator at 37° C. with a humidified atmosphere of 10% CO2. For HTS, cells were harvested from flasks by trypsinization and replated in an appropriate multi-well plate (typically 96 or 384 wells/plate) such that confluence would be achieved within 24 hours of plating. For electrophysiological studies, cells were removed from the culture flask by brief trypsinization and replated at low density onto glass cover slips. Cells were typically used for electrophysiological experiments within 24 to 72 h after plating. Cover slips containing HEK cells expressing hSCN3A or hSCN9A were placed in a bath on the stage of an inverted microscope and perfused (approximately 1 ml/min) with extracellular solution of the following composition: 138 mM NaCl, 2 mM CaCl2, 5.4 mM KCl, 1 mM MgCl2, 10 mM glucose, and 10 mM HEPES, pH 7.4, with NaOH. […] All recordings were made at room temperature (22-24° C.) using AXOPATCH 200B amplifiers and PCLAMP software (Axon Instruments, Burlingame, Calif.) or PatchXpress 7000 hardware and associated software (Axon Instruments, Burlingame, Calif.). hSCN3A or hSCN9A currents in HEK cells were measured using the whole-cell configuration of the patch-clamp technique (Hamill et al., 1981). […] As a result, voltage errors were negligible and no correction was applied. Current records were acquired at 20 to 50 KHz and filtered at 5 to 10 KHz. HEK cells stably transfected with hSCN3A or hSCN9A were viewed under Hoffman contrast optics and placed in front of an array of flow pipes emitting either control or compound-containing extracellular solutions. All compounds were dissolved in dimethyl sulfoxide to make 10 mM stock solutions, which were then diluted into extracellular solution to attain the final concentrations desired. […] The voltage-dependence of inactivation was determined by applying a series of depolarizing prepulses (8 sec long in 10 mV increments) from a negative holding potential. The voltage was then immediately stepped to 0 mV to assess the magnitude of the sodium current. Currents elicited at 0 mV were plotted as a function of prepulse potential to allow estimation of the voltage midpoint of inactivation (V1/2). Cells were then voltage clamped at the empirically determined V1/2. Compounds were tested for their ability to inhibit hSCN3A or hSCN9A sodium channels by activating the channel with a 20 msec voltage step to 0 mV following an 8 second conditioning prepulse to the empirically determined V1-2 (Table B). Compound effect (% inhibition) was determined by difference in current amplitude before and after application of test compounds. […] In some cases electrophysiological assays were conducted with PatchXpress 7000 hardware and associated software (Molecular Devices Corp) (Table B). All assay buffers and solutions were identical to those used in conventional whole-cell voltage clamp experiments described above. hSCN3A or hSCN9A containing cells were grown as above to 50%-80% confluency and harvested by trypsinization. Trypsinized cells were washed and resuspended in extracellular buffer at a concentration of 1×10^6 cells/ml. The onboard liquid handling facility of the PatchXpress was used for dispensing cells and application of test compounds. Determination of the voltage midpoint of inactivation was as described for conventional whole-cell recordings. Cells were then voltage-clamped to the empirically determined V1/2 and current was activated by a 20 msec voltage step to 0 mV.

hSCN9A = target: T2, hSCN9A (Homo sapiens, UniProt Q15858); assay: Whole-cell patch-clamp electrophysiology (conventional or PatchXpress), HEK cells expressing hSCN9A, estimated IC-50; assay type: cell-based; conditions: estimated IC-50, HEK cells expressing hSCN9A; class symbols or bounds; read-out: SCN9A EIC-50
T2 construct: expressed in transfected cells
Summary of the method: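 Current through each channel was evoked by a 20 ms step to 0 mV following an 8 s conditioning prepulse at the cell's own half-inactivation voltage. Recordings used HEK lines stably expressing the channel, conventional or PatchXpress patch clamp, room temperature, pH 7.4 bath; inhibition taken as pre/post-compound amplitude change.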

T1 sequence (Q9NY46 whole entry): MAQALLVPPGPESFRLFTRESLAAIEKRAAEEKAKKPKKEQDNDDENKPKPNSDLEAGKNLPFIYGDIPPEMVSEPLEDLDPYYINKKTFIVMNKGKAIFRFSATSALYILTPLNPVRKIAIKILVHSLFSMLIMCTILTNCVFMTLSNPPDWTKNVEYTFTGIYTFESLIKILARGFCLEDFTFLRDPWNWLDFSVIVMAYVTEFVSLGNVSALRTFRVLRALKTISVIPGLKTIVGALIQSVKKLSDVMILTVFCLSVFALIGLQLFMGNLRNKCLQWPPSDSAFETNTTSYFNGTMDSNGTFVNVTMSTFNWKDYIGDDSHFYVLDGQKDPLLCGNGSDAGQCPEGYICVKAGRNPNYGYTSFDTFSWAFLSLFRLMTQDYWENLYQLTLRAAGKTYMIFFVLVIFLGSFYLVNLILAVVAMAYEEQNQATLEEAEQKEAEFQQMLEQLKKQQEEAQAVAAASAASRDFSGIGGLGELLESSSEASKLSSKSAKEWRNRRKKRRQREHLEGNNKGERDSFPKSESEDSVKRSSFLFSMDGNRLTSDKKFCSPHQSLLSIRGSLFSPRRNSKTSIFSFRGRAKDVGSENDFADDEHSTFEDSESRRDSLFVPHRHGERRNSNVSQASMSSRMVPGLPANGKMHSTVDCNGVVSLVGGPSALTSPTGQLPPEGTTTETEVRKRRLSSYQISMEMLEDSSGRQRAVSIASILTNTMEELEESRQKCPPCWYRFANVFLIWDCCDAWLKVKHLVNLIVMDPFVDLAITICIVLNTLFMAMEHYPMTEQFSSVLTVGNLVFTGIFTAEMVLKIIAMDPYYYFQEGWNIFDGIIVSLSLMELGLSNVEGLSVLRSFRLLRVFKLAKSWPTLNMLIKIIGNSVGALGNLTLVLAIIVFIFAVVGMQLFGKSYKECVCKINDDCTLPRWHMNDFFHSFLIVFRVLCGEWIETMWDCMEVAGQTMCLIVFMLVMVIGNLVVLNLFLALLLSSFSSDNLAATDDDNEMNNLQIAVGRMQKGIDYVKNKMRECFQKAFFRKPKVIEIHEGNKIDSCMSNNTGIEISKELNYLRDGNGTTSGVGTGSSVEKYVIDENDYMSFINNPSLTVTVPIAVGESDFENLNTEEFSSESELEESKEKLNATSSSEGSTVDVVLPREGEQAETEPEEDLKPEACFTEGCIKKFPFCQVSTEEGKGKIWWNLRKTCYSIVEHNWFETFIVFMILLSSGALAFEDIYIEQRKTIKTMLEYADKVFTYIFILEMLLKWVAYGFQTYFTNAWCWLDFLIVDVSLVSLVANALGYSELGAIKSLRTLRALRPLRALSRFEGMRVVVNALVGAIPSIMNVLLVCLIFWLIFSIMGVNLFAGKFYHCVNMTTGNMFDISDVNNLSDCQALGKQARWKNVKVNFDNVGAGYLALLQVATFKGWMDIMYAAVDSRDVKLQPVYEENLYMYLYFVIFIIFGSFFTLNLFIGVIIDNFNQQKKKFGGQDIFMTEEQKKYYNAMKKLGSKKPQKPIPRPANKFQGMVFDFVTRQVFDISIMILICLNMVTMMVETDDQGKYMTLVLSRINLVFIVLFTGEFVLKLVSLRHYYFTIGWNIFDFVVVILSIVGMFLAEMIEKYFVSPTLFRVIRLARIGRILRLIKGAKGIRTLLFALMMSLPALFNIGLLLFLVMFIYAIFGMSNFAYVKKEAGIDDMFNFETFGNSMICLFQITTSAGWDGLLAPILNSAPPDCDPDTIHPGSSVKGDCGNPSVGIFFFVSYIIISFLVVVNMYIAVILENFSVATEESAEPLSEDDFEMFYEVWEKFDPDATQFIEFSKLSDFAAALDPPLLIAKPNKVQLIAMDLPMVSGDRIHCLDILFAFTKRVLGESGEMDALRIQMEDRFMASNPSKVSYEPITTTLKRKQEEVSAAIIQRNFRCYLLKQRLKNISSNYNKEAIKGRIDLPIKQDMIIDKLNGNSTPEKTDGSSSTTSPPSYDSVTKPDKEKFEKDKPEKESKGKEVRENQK
T2 sequence (Q15858 whole entry): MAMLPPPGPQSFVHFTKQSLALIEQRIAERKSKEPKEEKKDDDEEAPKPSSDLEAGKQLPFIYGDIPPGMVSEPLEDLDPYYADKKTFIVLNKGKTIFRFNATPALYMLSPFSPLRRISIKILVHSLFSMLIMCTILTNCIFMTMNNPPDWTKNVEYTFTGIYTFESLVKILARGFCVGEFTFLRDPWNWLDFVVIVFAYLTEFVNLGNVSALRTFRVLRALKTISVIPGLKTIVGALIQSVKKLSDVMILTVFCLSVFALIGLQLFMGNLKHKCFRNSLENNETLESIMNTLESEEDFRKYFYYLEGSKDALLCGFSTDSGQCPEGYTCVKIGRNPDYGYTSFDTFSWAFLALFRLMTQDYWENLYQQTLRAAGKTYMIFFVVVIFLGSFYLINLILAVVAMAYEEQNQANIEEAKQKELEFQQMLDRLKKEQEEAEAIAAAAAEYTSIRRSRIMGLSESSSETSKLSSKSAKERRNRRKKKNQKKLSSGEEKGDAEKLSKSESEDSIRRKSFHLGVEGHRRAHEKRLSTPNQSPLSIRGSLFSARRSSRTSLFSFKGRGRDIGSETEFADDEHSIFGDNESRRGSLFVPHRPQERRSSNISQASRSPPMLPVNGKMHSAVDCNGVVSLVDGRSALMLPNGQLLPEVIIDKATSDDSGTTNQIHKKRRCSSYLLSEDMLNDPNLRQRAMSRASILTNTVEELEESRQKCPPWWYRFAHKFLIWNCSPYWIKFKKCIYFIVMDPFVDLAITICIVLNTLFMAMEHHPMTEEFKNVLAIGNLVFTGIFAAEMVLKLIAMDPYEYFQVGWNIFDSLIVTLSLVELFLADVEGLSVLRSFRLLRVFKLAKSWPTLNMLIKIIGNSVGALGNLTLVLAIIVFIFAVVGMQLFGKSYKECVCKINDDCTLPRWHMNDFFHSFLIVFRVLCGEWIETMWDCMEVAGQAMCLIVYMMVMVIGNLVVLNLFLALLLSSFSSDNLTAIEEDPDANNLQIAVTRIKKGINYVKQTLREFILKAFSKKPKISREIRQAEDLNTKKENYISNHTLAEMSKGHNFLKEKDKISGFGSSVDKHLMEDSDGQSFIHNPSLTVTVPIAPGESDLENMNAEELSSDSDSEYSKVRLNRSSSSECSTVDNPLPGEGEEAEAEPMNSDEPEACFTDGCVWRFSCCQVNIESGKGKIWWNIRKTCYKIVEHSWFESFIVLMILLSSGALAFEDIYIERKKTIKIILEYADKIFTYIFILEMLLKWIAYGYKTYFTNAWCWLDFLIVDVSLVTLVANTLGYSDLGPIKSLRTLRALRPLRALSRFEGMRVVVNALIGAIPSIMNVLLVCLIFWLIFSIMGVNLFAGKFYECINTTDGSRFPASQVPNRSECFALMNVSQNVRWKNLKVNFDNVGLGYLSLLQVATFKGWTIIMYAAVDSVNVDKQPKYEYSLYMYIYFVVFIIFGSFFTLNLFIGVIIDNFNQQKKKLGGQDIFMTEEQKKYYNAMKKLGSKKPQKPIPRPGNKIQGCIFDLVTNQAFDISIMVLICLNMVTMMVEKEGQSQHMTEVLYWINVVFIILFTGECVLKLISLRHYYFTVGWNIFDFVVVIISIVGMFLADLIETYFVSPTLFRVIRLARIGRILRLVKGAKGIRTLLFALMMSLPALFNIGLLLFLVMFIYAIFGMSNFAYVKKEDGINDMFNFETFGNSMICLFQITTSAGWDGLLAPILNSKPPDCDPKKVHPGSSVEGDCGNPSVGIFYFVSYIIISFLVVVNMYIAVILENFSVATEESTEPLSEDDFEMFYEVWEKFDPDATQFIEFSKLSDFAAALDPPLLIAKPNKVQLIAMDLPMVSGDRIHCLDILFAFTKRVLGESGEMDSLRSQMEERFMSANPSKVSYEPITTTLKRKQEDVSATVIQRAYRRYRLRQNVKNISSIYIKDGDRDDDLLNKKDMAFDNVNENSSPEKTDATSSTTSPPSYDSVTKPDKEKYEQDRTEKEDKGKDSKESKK

| Structure (SMILES) | IC50 (hSCN3A) | IC50 (hSCN9A) |
| --- | --- | --- |
| O=S(=O)(Nc1nccs1)c1ccc(Nc2nccc(OCC(c3ccccc3)c3ccccc3)n2)cc1 [Compound 46, 4-(4-(2,2-diphenylethoxy)pyrimidin-2-ylamino)-N-(thiazol-2-yl)benzenesulfonamide] | < 2000 nM | > 10000 nM |
| O=S(=O)(Nc1nccs1)c1ccc(Nc2nc(-c3ccccc3)c(-c3ccccc3)s2)cc1 [Compound 47, 4-(4,5-diphenylthiazol-2-ylamino)-N-(thiazol-2-yl)benzenesulfonamide] | < 2000 nM | > 3000 nM |
| O=S(=O)(Nc1nccs1)c1ccc(Nc2nc(COc3ccccc3)cs2)cc1 [Compound 48, 4-(4-(phenoxymethyl)thiazol-2-ylamino)-N-(thiazol-2-yl)benzenesulfonamide] | < 2000 nM | > 1000 nM |
| O=S(=O)(Nc1nccs1)c1ccc(Nc2nc(CC(c3ccccc3)c3ccccc3)cs2)cc1 [Compound 49, 4-(4-(2,2-diphenylethyl)thiazol-2-ylamino)-N-(thiazol-2-yl)benzenesulfonamide] | < 2000 nM | < 2000 nM |
| O=S(=O)(Nc1nccs1)c1ccc(Nc2nc(CCCOc3ccccc3)cs2)cc1 [Compound 50, 4-(4-(3-phenoxypropyl)thiazol-2-ylamino)-N-(thiazol-2-yl)benzenesulfonamide] | < 2000 nM | 2000 to 10000 nM |
| O=S(=O)(Nc1nccs1)c1ccc(Nc2nc(CCC3CCCC3)cs2)cc1 [Compound 51, 4-(4-(2-cyclopentylethyl)thiazol-2-ylamino)-N-(thiazol-2-yl)benzenesulfonamide] | < 2000 nM | 2000 to 10000 nM |
| O=S(=O)(Nc1nccs1)c1ccc(Nc2nc(COc3ccc(Cl)cc3)cs2)cc1 [Compound 52, 4-(4-((4-chlorophenoxy)methyl)thiazol-2-ylamino)-N-(thiazol-2-yl)benzenesulfonamide] | < 2000 nM | < 2000 nM |
| O=S(=O)(Nc1nccs1)c1ccc(Nc2nc(C3CC3c3ccccc3)cs2)cc1 (stereo not shown) [Compound 53, 4-(4-(2-phenylcyclopropyl)thiazol-2-ylamino)-N-(thiazol-2-yl)benzenesulfonamide] | < 2000 nM | > 1000 nM |
| O=S(=O)(Nc1nccs1)c1ccc(Nc2nccc(OCc3ccccc3F)n2)cc1 [Compound 54, 4-(4-(2-fluorobenzyloxy)pyrimidin-2-ylamino)-N-(thiazol-2-yl)benzenesulfonamide] | 2000 to 10000 nM | > 1000 nM |
| O=S(=O)(Nc1nccs1)c1ccc(Nc2nccc(OCc3ccc(C(F)(F)F)cc3)n2)cc1 [Compound 55, N-(thiazol-2-yl)-4-(4-(4-(trifluoromethyl)benzyloxy)pyrimidin-2-ylamino)benzenesulfonamide] | < 2000 nM | > 1000 nM |
| O=S(=O)(Nc1nccs1)c1ccc(Nc2nc(CNCC(c3ccccc3)c3ccccc3)cs2)cc1 [Compound 56, 4-(4-((2,2-diphenylethylamino)methyl)thiazol-2-ylamino)-N-(thiazol-2-yl)benzenesulfonamide] | < 2000 nM | < 2000 nM |
| O=S(=O)(Nc1nccs1)c1ccc(Nc2nc(CNCCOc3ccccc3)cs2)cc1 [Compound 57, 4-(4-((2-phenoxyethylamino)methyl)thiazol-2-ylamino)-N-(thiazol-2-yl)benzenesulfonamide] | 2000 to 10000 nM | > 1000 nM |
| O=S(=O)(Nc1nccs1)c1ccc(Nc2nc(CN3CCC[C@H]3CN3CCCC3)cs2)cc1 [Compound 58, (S)-4-(4-((2-(pyrrolidin-1-ylmethyl)pyrrolidin-1-yl)methyl)thiazol-2-ylamino)-N-(thiazol-2-yl)benzenesulfonamide] | > 1000 nM | 2000 to 10000 nM |
| O=S(=O)(Nc1nccs1)c1ccc(Nc2nc(CNC(c3ccccc3)c3ccccc3)cs2)cc1 [Compound 60, 4-(4-((benzhydrylamino)methyl)thiazol-2-ylamino)-N-(thiazol-2-yl)benzenesulfonamide] | < 2000 nM | 2000 to 10000 nM |
| O=S(=O)(Nc1nccs1)c1ccc(Nc2nc(CNCCC(c3ccccc3)c3ccccc3)cs2)cc1 [Compound 61, 4-(4-((3,3-diphenylpropylamino)methyl)thiazol-2-ylamino)-N-(thiazol-2-yl)benzenesulfonamide] | < 2000 nM | < 2000 nM |
| CC(C)(C)c1ccc(OCc2csc(Nc3ccc(S(=O)(=O)Nc4nccs4)cc3)n2)cc1 [Compound 62, 4-(4-((4-tert-butylphenoxy)methyl)thiazol-2-ylamino)-N-(thiazol-2-yl)benzenesulfonamide] | < 2000 nM | 2000 to 10000 nM |
| CC(Oc1ccccc1)c1csc(Nc2ccc(S(=O)(=O)Nc3nccs3)cc2)n1 (stereo not shown) [Compound 63, 4-(4-(1-phenoxyethyl)thiazol-2-ylamino)-N-(thiazol-2-yl)benzenesulfonamide] | < 2000 nM | 2000 to 10000 nM |
| O=S(=O)(Nc1nccs1)c1ccc(Nc2nc(C3(c4ccc(Cl)cc4)CCCC3)cs2)cc1 [Compound 64, 4-(4-(1-(4-chlorophenyl)cyclopentyl)thiazol-2-ylamino)-N-(thiazol-2-yl)benzenesulfonamide] | < 2000 nM | > 1000 nM |
| O=S(=O)(Nc1nccs1)c1ccc(Nc2nc(CNCc3ccc(Cl)cc3)cs2)cc1 [Compound 65, 4-(4-((4-chlorobenzylamino)methyl)thiazol-2-ylamino)-N-(thiazol-2-yl)benzenesulfonamide] | < 2000 nM | < 2000 nM |
| COc1ccc(CCNCc2csc(Nc3ccc(S(=O)(=O)Nc4nccs4)cc3)n2)cc1OC [Compound 66, 4-(4-((3,4-dimethoxyphenethylamino)methyl)thiazol-2-ylamino)-N-(thiazol-2-yl)benzenesulfonamide] | > 1000 nM | > 3000 nM |
| CN(CCc1ccccc1)Cc1csc(Nc2ccc(S(=O)(=O)Nc3nccs3)cc2)n1 [Compound 67, 4-(4-((methyl(phenethyl)amino)methyl)thiazol-2-ylamino)-N-(thiazol-2-yl)benzenesulfonamide] | < 2000 nM | 2000 to 10000 nM |
| CCN(CC)Cc1csc(Nc2ccc(S(=O)(=O)Nc3nccs3)cc2)n1 [Compound 68, 4-(4-((diethylamino)methyl)thiazol-2-ylamino)-N-(thiazol-2-yl)benzenesulfonamide] | > 1000 nM | 2000 to 10000 nM |
| O=S(=O)(Nc1nccs1)c1ccc(Nc2nc(CNCCCCc3ccccc3)cs2)cc1 [Compound 69, 4-(4-((4-phenylbutylamino)methyl)thiazol-2-ylamino)-N-(thiazol-2-yl)benzenesulfonamide] | < 2000 nM | < 2000 nM |
| CN(Cc1csc(Nc2ccc(S(=O)(=O)Nc3nccs3)cc2)n1)C(c1ccccc1)c1ccccc1 [Compound 70, 4-(4-((benzhydryl(methyl)amino)methyl)thiazol-2-ylamino)-N-(thiazol-2-yl)benzenesulfonamide] | < 2000 nM | > 1000 nM |
| O=S(=O)(Nc1nccs1)c1ccc(Nc2nc(CNCc3ccc(C(F)(F)F)cc3)cs2)cc1 [Compound 71, N-(thiazol-2-yl)-4-(4-((4-(trifluoromethyl)benzylamino)methyl)thiazol-2-ylamino)benzenesulfonamide] | < 2000 nM | 2000 to 10000 nM |
| O=[N+]([O-])c1ccc(CNCc2csc(Nc3ccc(S(=O)(=O)Nc4nccs4)cc3)n2)cc1 [Compound 72, 4-(4-((4-nitrobenzylamino)methyl)thiazol-2-ylamino)-N-(thiazol-2-yl)benzenesulfonamide] | < 2000 nM | 2000 to 10000 nM |
